This passage reports MIC results from patent US7265107B2, “Rifamycin C-11 oxime cyclo derivatives effective against drug-resistant microbes” (Cumbre Pharmaceuticals Inc., priority 2004, dated 2007).

Values after ≈ are worked out from the molar mass of the structure shown. Read-outs that look alike come from different tables or passages of the source.

What all share (assay type): cell-based
Test [1] has as its system Streptococcus pneumoniae ATCC6303. To be noted: rifS, THY Broth with 1 mg/mL catalase, 5% CO2, 37° C., read-out: Antimicrobial activity (MIC).
The test system of test [2] is Haemophilus influenzae ATCC10211. To be noted: rifS, BHI Broth with NAD and hematin, 37° C., read-out: Antimicrobial activity (MIC).
In test [3] the test system is Staphylococcus aureus EN1252a gvrA^S84L grlA^S80F. As to the kind of experiment: microbe, parasite or virus in culture. Particulars: read-out: Antimicrobial activity (MIC). As for the experimental part: (§1) Representative compounds were assayed for antimicrobial activity as follows: Minimum Inhibitory Concentrations (“MICs”) were determined by the microbroth dilution method as per NCCLS guidelines (National Committee for Clinical Laboratory Standards. 2000. Methods for dilution antimicrobial susceptibility tests for bacteria that grow aerobically, 5th ed. M7-A5. National Committee for Clinical Laboratory Standards, Wayne, Pa.), except that all growth incubations were conducted at 37° C. Bacterial cultures were tested in the following bacteriological media: S. aureus, S. epidermidis, and E. coli in Cation-Adjusted Mueller-Hinton Broth, S. pneumoniae in THY Broth supplemented with 1 mg/mL catalase under 5% CO2 atmosphere, S. pyogenes in THY Broth, E. faecalis in BHI Broth, H. influenzae in BHI Broth supplemented with 0.75 μL of 1 mg/mL NAD and 150 μL of 1 mg/ml hematin per 5 mL, and M. smegmatis in Middlebrook Broth plus ADC Enrichment.
S. aureus EN1252a gyrA^S84L grlA^S80F is a quinolone-resistant strain due to double mutations to the genes confer DNA gyrase and topoisomerase IV.

For test [4], the system named is Enterococcus faecalis ATCC29212. To be noted: rifS, BHI Broth, 37° C., read-out: Antimicrobial activity (MIC).
A short description of test [5]: MIC, microbroth dilution, panel of rifampin-susceptible Gram-positive strains. To be noted: across the five rifampin-susceptible Gram-positive strains. Here is the method:
as §1
S. aureus ATCC […], S. epidermidis ATCC 12228, S. pneumoniae ATCC6303, S. pyogenes ATCC 19615 and E. faecalis ATCC 29212 are rifampin-susceptible Gram-positive strains. […] The compounds of the current invention show further improved activity against these strains with MICs as low as 0.0005 μg/ml.
For orientation: Dilution methods test growth across graded concentrations, often in twofold steps.

Test [6] deals with Streptococcus pyogenes ATCC19615. To be noted: rifS, THY Broth, 37° C., read-out: Antimicrobial activity (MIC).
The mark [7] stands for this setting: cipR, Cation-Adjusted Mueller-Hinton Broth, 37° C.

For the compound `CO[C@H]1/C=C/O[C@@]2(C)Oc3c(C)c(O)c4c(=O)c(c5oc6cc(N(CCO)CCO)cc(O)c6nc-5c4c3/C2=N/O)NC(=O)/C(C)=C\C=C\[C@H](C)[C@H](O)[C@@H](C)[C@@H](O)[C@@H](C)[C@H](OC(C)=O)[C@@H]1C` [Example 18, 11-Deoxy-11-hydroxyimino-1′,4-didehydro-1-deoxy-1,4-dihydro-3′-hydroxy-5′-[bis-(2-hydroxy-ethyl)-amino]-1-oxo-rifamycin VIII], the MIC in test [1] lay in the range of 0.06 to 31 ng/mL (≈ 0.0653 to 33.7 nM); in test [2] it was 125 to 8000 ng/mL (≈ 136 to 8710 nM); in test [3] (setting [7]) it was 0.5 to 125 ng/mL (≈ 0.544 to 136 nM); in test [4], 500 to 31200 ng/mL (≈ 544 to 34000 nM).

Turning to `CO[C@H]1/C=C/O[C@@]2(C)Oc3c(C)c(O)c4c(=O)c(c5oc6cc(N7CCN(C)CC7)cc(C)c6nc-5c4c3/C2=N/O)NC(=O)/C(C)=C\C=C\[C@H](C)[C@H](O)[C@@H](C)[C@@H](O)[C@@H](C)[C@H](OC(C)=O)[C@@H]1C` [Example 19, 11-Deoxy-11-hydroxyimino-1′,4-didehydro-1-deoxy-1,4-dihydro-3′-methyl-5′-(4-methyl-1-piperazinyl)-1-oxo-rifamycin VIII], the MIC in test [1] lay within 0.06 to 31 ng/mL (≈ 0.0658 to 34 nM); in test [2], 125 to 8000 ng/mL (≈ 137 to 8770 nM); in test [3] (setting [7]), 0.5 to 125 ng/mL (≈ 0.548 to 137 nM); in test [4], 500 to 31200 ng/mL (≈ 548 to 34300 nM).

Consider `CO[C@H]1/C=C/O[C@@]2(C)Oc3c(C)c(O)c4c(=O)c(c5oc6cc(N7CCN(CC(C)C)CC7)ccc6nc-5c4c3/C2=N/O)NC(=O)/C(C)=C\C=C\[C@H](C)[C@H](O)[C@@H](C)[C@@H](O)[C@@H](C)[C@H](OC(C)=O)[C@@H]1C` [Example 20, 11-Deoxy-11-hydroxyimino-1′,4-didehydro-1-deoxy-1,4-dihydro-5′-(4-isobutyl-1-piperazinyl)-1-oxo-rifamycin VIII], for which the MIC in test [1] was in the range of 0.06 to 31 ng/mL (≈ 0.0638 to 33 nM); in test [2], 125 to 8000 ng/mL (≈ 133 to 8510 nM); in test [3] (setting [7]) it was 0.5 to 125 ng/mL (≈ 0.532 to 133 nM); in test [4], 500 to 31200 ng/mL (≈ 532 to 33200 nM).

Take `CO[C@H]1/C=C/O[C@@]2(C)Oc3c(C)c(O)c4c(c3/C2=N/OCC(=O)O)C2=NC3(CCN(CC(C)C)CC3)NC2=C(NC(=O)/C(C)=C\C=C\[C@H](C)[C@H](O)[C@@H](C)[C@@H](O)[C@@H](C)[C@H](OC(C)=O)[C@@H]1C)C4=O` [Example 21, 11-Deoxy-11-(4-carboxymethoxyimino)-1′,4-didehydro-1-deoxy-1,4-dihydro-5′-(2-methylpropyl)-1-oxo-rifamycin XIV]: the MIC in test [1] was 0.06 to 31 ng/mL (≈ 0.0652 to 33.7 nM); in test [2] it was 125 to 8000 ng/mL (≈ 136 to 8690 nM); in test [3] (setting [7]), 0.5 to 125 ng/mL (≈ 0.543 to 136 nM); in test [4] it was 500 to 31200 ng/mL (≈ 543 to 34000 nM).

As to `COc1c(N2CCN(C(=O)CO/N=C3/c4c5c(C)c(O)c6c4C4=NC7(CCN(CC(C)C)CC7)NC4=C(NC(=O)/C(C)=C\C=C\[C@H](C)[C@H](O)[C@@H](C)[C@@H](O)[C@@H](C)[C@H](OC(C)=O)[C@H](C)[C@@H](OC)/C=C/O[C@@]3(C)O5)C6=O)C(C)C2)c(F)cc2c(=O)c(C(=O)O)cn(C3CC3)c12` (some centres unmarked) [Example 22, 11-Deoxy-11-{2-oxo-2-[2-methyl4-(3-carboxy-1-cyclopropl-2-methoxy-6-fluoro-4-oxo-1,4-dihydroquinolin-7-yl)piperazin-1-yl]ethoxyimino}-1′,4-didehydro-1-deoxy-1,4-dihydro-5′-(2-methylpropyl)-1-oxo-rifamycin XIV], the MIC fell in the range of 0.06 to 31 ng/mL (≈ 0.047 to 24.3 nM) in test [1], 125 to 8000 ng/mL (≈ 97.9 to 6260 nM) in test [2], 0.5 to 125 ng/mL (≈ 0.391 to 97.9 nM) in test [3] (setting [7]) and 500 to 31200 ng/mL (≈ 391 to 24500 nM) in test [4].

Consider `CO[C@H]1/C=C/O[C@@]2(C)Oc3c(C)c(O)c4c(O)c(c(/C=N/N5CCN(C)CC5)c(O)c4c3C2=O)NC(=O)/C(C)=C\C=C\[C@H](C)[C@H](O)[C@@H](C)[C@@H](O)[C@@H](C)[C@H](OC(C)=O)[C@@H]1C` [rifampin, reference compound], for which the MIC in test [1] is 61 ng/mL (≈ 74.1 nM); in test [2], 240 ng/mL (≈ 292 nM); in test [3], 4 ng/mL (≈ 4.86 nM); in test [5], 13 to 1000 ng/mL (≈ 15.8 to 1220 nM); in test [6], 13 ng/mL (≈ 15.8 nM); in test [4] it was 1000 ng/mL (≈ 1220 nM).
